Measured values reported in PubChem BioAssay AID2060614 (Molecular Pharmacology Branch, DTP, NCI, 2025).
pIC50: −log10 of the molar value.

Test system: 598228-144-R-J1-PDC complex spheroids, viability
Experiment: Anticancer human tumor 598228-144-R-J1-PDC patient-derived serous endometrial adenocarcinoma cell line growth inhibition [CLK]
Conditions: for pIC50: curve of first compound; for viability, T/C: stronger effect = lower value
Summary of the method: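 Patient-derived tumor cells grown as complex spheroids with HUVEC endothelial cells and mesenchymal stem cells, treated with drug combinations. Concentrations descend in half-log steps from near clinical Cmax, or from 10 microM if Cmax unknown.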
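Also: spheroids exposed to compounds for seven days before readout.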
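For viability, T/C in this document: 100% = DMSO vehicle control wells.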

With `CC1COCCN1c1cc(C2(S(C)(=N)=O)CC2)nc(-c2ccnc3[nH]ccc23)n1` (centres undefined) + CN1CCN(c2cc(C(=O)Nc3cc4cc(-c5cnn(C)c5)ccc4cn3)ccn2)CC1 the pIC50 (second compound 0.0316 µM) was 5.21, the pIC50 (second compound 0.1 µM) was 5.52 and the pIC50 (second compound 0.316 µM) was greater than 7.50. For the same compound, the pIC50 (second compound 1 µM) was greater than 7.50, the pIC50 (second compound 3.16 µM) was greater than 7.50 and the pIC50 (second compound 10 µM) was greater than 7.50. The viability, T/C (second compound 0.0316 µM, first compound 0.0316 µM) was 126%, the viability, T/C (second compound 0.0316 µM, first compound 0.1 µM) was 125% and the viability, T/C (second compound 0.0316 µM, first compound 0.316 µM) was 105%. The viability, T/C (second compound 0.0316 µM, first compound 1 µM) was 102%, the viability, T/C (second compound 0.0316 µM, first compound 3.16 µM) was 63.5% and the viability, T/C (second compound 0.0316 µM, first compound 10 µM) was 38.3%. It also gave a viability, T/C (second compound 0.1 µM, first compound 0.0316 µM) of 127%, a viability, T/C (second compound 0.1 µM, first compound 0.1 µM) of 122% and a viability, T/C (second compound 0.1 µM, first compound 0.316 µM) of 110%. For the same compound, the viability, T/C (second compound 0.1 µM, first compound 1 µM) was 89.1%, the viability, T/C (second compound 0.1 µM, first compound 3.16 µM) was 46% and the viability, T/C (second compound 0.1 µM, first compound 10 µM) was 28.6%. The viability, T/C (second compound 0.316 µM, first compound 0.0316 µM) was 17.1%, the viability, T/C (second compound 0.316 µM, first compound 0.1 µM) was 16.4% and the viability, T/C (second compound 0.316 µM, first compound 0.316 µM) was 17.9%. It also gave a viability, T/C (second compound 0.316 µM, first compound 1 µM) of 14.8%, a viability, T/C (second compound 0.316 µM, first compound 3.16 µM) of 16.3% and a viability, T/C (second compound 0.316 µM, first compound 10 µM) of 13.3%. It also gave a viability, T/C (second compound 1 µM, first compound 0.0316 µM) of 1.37%, a viability, T/C (second compound 1 µM, first compound 0.1 µM) of 1.72% and a viability, T/C (second compound 1 µM, first compound 0.316 µM) of 2.93%. The viability, T/C (second compound 1 µM, first compound 1 µM) was 1.07%, the viability, T/C (second compound 1 µM, first compound 3.16 µM) was 2.89% and the viability, T/C (second compound 1 µM, first compound 10 µM) was 7.44%. It also gave a viability, T/C (second compound 3.16 µM, first compound 0.0316 µM) of 1.86%, a viability, T/C (second compound 3.16 µM, first compound 0.1 µM) of 3.02% and a viability, T/C (second compound 3.16 µM, first compound 0.316 µM) of 2%. For the same compound, the viability, T/C (second compound 3.16 µM, first compound 1 µM) was 1.65%, the viability, T/C (second compound 3.16 µM, first compound 3.16 µM) was 3.13% and the viability, T/C (second compound 3.16 µM, first compound 10 µM) was 7.42%. The viability, T/C (second compound 10 µM, first compound 0.0316 µM) was 1.07%, the viability, T/C (second compound 10 µM, first compound 0.1 µM) was 1.83% and the viability, T/C (second compound 10 µM, first compound 0.316 µM) was 2.32%. For the same compound, the viability, T/C (second compound 10 µM, first compound 1 µM) was 0.91%, the viability, T/C (second compound 10 µM, first compound 3.16 µM) was 2.14% and the viability, T/C (second compound 10 µM, first compound 10 µM) was 3.43%.

For `NC(=O)C(=Cn1cnc(-c2cc(C(F)(F)F)cc(C(F)(F)F)c2)n1)c1cncnc1` + CN1CCN(c2cc(C(=O)Nc3cc4cc(-c5cnn(C)c5)ccc4cn3)ccn2)CC1, the pIC50 (second compound 0.0316 µM) was 6.63, the pIC50 (second compound 0.1 µM) was 6.46 and the pIC50 (second compound 0.316 µM) was greater than 8.02. It also gave a pIC50 (second compound 1 µM) greater than 8.02, a pIC50 (second compound 3.16 µM) greater than 8.02 and a pIC50 (second compound 10 µM) greater than 8.02. The viability, T/C (second compound 0.0316 µM, first compound 0.00949 µM) was 108%, the viability, T/C (second compound 0.0316 µM, first compound 0.03 µM) was 109% and the viability, T/C (second compound 0.0316 µM, first compound 0.0949 µM) was 72.9%. The viability, T/C (second compound 0.0316 µM, first compound 0.3 µM) was 47.6%, the viability, T/C (second compound 0.0316 µM, first compound 0.949 µM) was 29.3% and the viability, T/C (second compound 0.0316 µM, first compound 3 µM) was 37.8%. For the same compound, the viability, T/C (second compound 0.1 µM, first compound 0.00949 µM) was 114%, the viability, T/C (second compound 0.1 µM, first compound 0.03 µM) was 87.4% and the viability, T/C (second compound 0.1 µM, first compound 0.0949 µM) was 76.9%. The viability, T/C (second compound 0.1 µM, first compound 0.3 µM) was 47.7%, the viability, T/C (second compound 0.1 µM, first compound 0.949 µM) was 38.9% and the viability, T/C (second compound 0.1 µM, first compound 3 µM) was 9.13%. For the same compound, the viability, T/C (second compound 0.316 µM, first compound 0.00949 µM) was 12.9%, the viability, T/C (second compound 0.316 µM, first compound 0.03 µM) was 6.08% and the viability, T/C (second compound 0.316 µM, first compound 0.0949 µM) was 0.74%. It also gave a viability, T/C (second compound 0.316 µM, first compound 0.3 µM) of 0.62%, a viability, T/C (second compound 0.316 µM, first compound 0.949 µM) of 2.45% and a viability, T/C (second compound 0.316 µM, first compound 3 µM) of 1.39%. For the same compound, the viability, T/C (second compound 1 µM, first compound 0.00949 µM) was 0.59%, the viability, T/C (second compound 1 µM, first compound 0.03 µM) was 0.85% and the viability, T/C (second compound 1 µM, first compound 0.0949 µM) was 1.1%. It also gave a viability, T/C (second compound 1 µM, first compound 0.3 µM) of 1.03%, a viability, T/C (second compound 1 µM, first compound 0.949 µM) of 0.66% and a viability, T/C (second compound 1 µM, first compound 3 µM) of 0.41%. It also gave a viability, T/C (second compound 3.16 µM, first compound 0.00949 µM) of 1.32%, a viability, T/C (second compound 3.16 µM, first compound 0.03 µM) of 2.21% and a viability, T/C (second compound 3.16 µM, first compound 0.0949 µM) of 2.27%. The viability, T/C (second compound 3.16 µM, first compound 0.3 µM) was 1.81%, the viability, T/C (second compound 3.16 µM, first compound 0.949 µM) was 4.57% and the viability, T/C (second compound 3.16 µM, first compound 3 µM) was 0.46%. For the same compound, the viability, T/C (second compound 10 µM, first compound 0.00949 µM) was 0.86%, the viability, T/C (second compound 10 µM, first compound 0.03 µM) was 0.87% and the viability, T/C (second compound 10 µM, first compound 0.0949 µM) was 1.32%. The viability, T/C (second compound 10 µM, first compound 0.3 µM) was 0.79%, the viability, T/C (second compound 10 µM, first compound 0.949 µM) was 1.73% and the viability, T/C (second compound 10 µM, first compound 3 µM) was 0.39%.
